Drawing on patent publication US20120148680A1, “EYE CREAM AND PREPARATION METHOD” (MAYINGLONG PHARMACEUTICAL GROUP CO., LTD, priority 2010, published 2012), this text covers Stimulation ratio for one molecule.

The test system of this data set is red blood cells. Kind of data set: Stimulation test, Red Blood Cell (RBC) test system, INVITTOX n° 37. The conditions noted are these: relative to SDS. The data set is classed as cell-based. On the procedure:
Experimental method: Refer to ECVAM DB-ALM: INVITTOX protocol; Red Blood Cell Test System INVITTOX n° 37, hereinafter referred to as RBC test system.
The basic principle of the RBC test system is to determine the damage on the cell membrane caused by chemicals and the change of cell membrane permeability resulted from it. The damage degree of the cell membrane, which is directly related to the stimulation of a product, is evaluated through determining the amount of hemoglobin leaked from red blood cells.
The absorbance of red blood cell suspension after exposure to the chemicals is determined by spectrophotometric method, then the hemolysis rate and HSO value (i.e. the concentration value of the test substance, 50% of red blood cells of which develop hemolysis) can be calculated. The HSO value and the results of two grading standards in Draize test, i.e. the maximum average Draize total score (MAS) and the 24 h after application and scores of composition parameters (cornea, conjunctiva and iris) thereof are subjected to correlation analysis to show good consistency. At the same concentration, the higher the hemolysis rate of the sample is, the stronger the stimulation of the sample is.
The stimulation ratio of each sample is as shown in the following table relative to SDS after the comparison of the SDS stimulation ratio: […]

For `CCCCCCCCCCCCOS(=O)(=O)[O-].[Na+]` [SDS control substance, SDS], the Stimulation ratio is 100%.
